Test results as given in patent publication US11596639B2, “Substituted indole Mcl-1 inhibitors” (Vanderbilt University, priority 2016, dated 2023).
Like-named read-outs stand apart in the source and are kept apart here.

What was measured:
[1] = biological target: Mcl-1 (Homo sapiens (Human), UniProt Q07820); assay: Fluorescence polarization anisotropy (FPA) competition assay, FITC-Bak or FITC-Bim BH3 peptide; type: binding; conditions: read-out: Ki for Inhibition of Mcl-1 by FPA assay
[2] = tested on: H929 human cancer cell lines; assay: Cellular viability / proliferation (Cell TiterGlo, 72 h); type: cell-based
Method in brief: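 Top dose 50 μM, serially diluted 2-fold, applied one day after seeding (1,000 cells/well, 10% FBS), DMSO below 1%.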

[3] = Homo sapiens, NCI-H929, 72 h, read-out: GI50 on cellular proliferation of H929 human cancer cell lines, H929 cells, 72 h, Cell TiterGlo, 10% FBS

Mcl-1, sequence (Q07820 172-327): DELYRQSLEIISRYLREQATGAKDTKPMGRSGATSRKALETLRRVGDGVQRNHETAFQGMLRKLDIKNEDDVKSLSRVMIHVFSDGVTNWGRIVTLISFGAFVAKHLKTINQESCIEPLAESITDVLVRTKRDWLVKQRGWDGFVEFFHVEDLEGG

Row | SMILES | Ki [1] | GI50 [2, 3] | GI50 ([2]; H929 cells, 72 h, Cell TiterGlo, 10% FBS, read-out: GI50 on cellular proliferation of H929 human cancer cell lines)
1 | Cc1cc(OCCCc2c3n(c4c(-c5c(C)nn(C)c5C)c(Cl)ccc24)CCCN(c2cc(C(=O)O)c4c(Br)cn(C)c4c2)C3=O)cc(C)c1Cl [Example 2, 3-Bromo-6-(8-chloro-11-(3-(4-chloro-3,5-dimethylphenoxy)propyl)-1-oxo-7-(1,3,5-trimethyl-1H-pyrazol-4-yl)-4,5-dihydro-1H-[1,4]diazepino[1,2-a]indol-2(3H)-yl)-1-methyl-1H-indole-4-carboxylic acid] | < 1 nM | 8300 nM | –
2 | Cc1cc(OCCCc2c3n(c4c(-c5c(C)nn(C)c5C)c(Cl)ccc24)[C@H](C)CN(c2cccc4cc(C(=O)O)n(C)c24)C3=O)cc(C)c1Cl [Example 178, (R)-7-(7-Chloro-10-(3-(4-chloro-3,5-dimethylphenoxy)propyl)-4-methyl-1-oxo-6-(1,3,5-trimethyl-1H-pyrazol-4-yl)-3,4-dihydropyrazino[1,2-a]indol-2(1H)-yl)-1-methyl-1H-indole-2-carboxylic acid] | < 1 nM | < 200 nM | –
3 | Cc1cc(OCCCc2c3n(c4c(-c5c(C)nn(C)c5C)c(Cl)ccc24)[C@H](C)CN(c2cn(C)c4c(C(=O)O)cccc24)C3=O)cc(C)c1Cl [Example 75, (R)-3-(7-Chloro-10-(3-(4-chloro-3,5-dimethylphenoxy)propyl)-4-methyl-1-oxo-6-(1,3,5-trimethyl-1H-pyrazol-4-yl)-3,4-dihydropyrazino[1,2-a]indol-2(1H)-yl)-1-methyl-1H-indole-7-carboxylic acid] | < 1 nM | 1100 nM | –
4 | Cc1cc(OCCCc2c3n(c4c(-c5c(C)nn(C)c5C)c(Cl)ccc24)[C@H](C)CN(c2cn(C)c4c(C#N)cc(C(=O)O)cc24)C3=O)cc(C)c1Cl [Example 244, (R)-3-(7-Chloro-10-(3-(4-chloro-3,5-dimethylphenoxy)propyl)-4-methyl-1-oxo-6-(1,3,5-trimethyl-1H-pyrazol-4-yl)-3,4-dihydropyrazino[1,2-a]indol-2(1H)-yl)-7-cyano-1-methyl-1H-indole-5-carboxylic acid] | < 1 nM | 400 nM | –
5 | Cc1cc(OCCCc2c3n(c4c(-c5c(C)nc(CN6CCN(C)C(=O)C6)nc5C)c(Cl)ccc24)[C@H](C)CN(c2cn(C)c4ccc(C(=O)O)cc24)C3=O)cc(C)c1Cl [Example 432, (R)-3-(7-Chloro-10-(3-(4-chloro-3,5-dimethylphenoxy)propyl)-6-(4,6-dimethyl-2-((4-methyl-3-oxopiperazin-1-yl)methyl)pyrimidin-5-yl)-4-methyl-1-oxo-3,4-dihydropyrazino[1,2-a]indol-2(1H)-yl)-1-methyl-1H-indole-5-carboxylic acid] | < 1 nM | 210 nM | –
6 | Cc1cc(OCCCc2c3n(c4c(-c5c(C)nn(C)c5C)c(Cl)ccc24)[C@H](C)CN(c2cc(C(=O)O)c4cc[nH]c4c2)C3=O)cc(C)c1Cl [Example 101, (R)-6-(7-chloro-10-(3-(4-chloro-3,5-dimethylphenoxy)propyl)-4-methyl-1-oxo-6-(1,3,5-trimethyl-1H-pyrazol-4-yl)-3,4-dihydropyrazino[1,2-a]indol-2(1H)-yl)-1H-indole-4-carboxylic acid] | < 1 nM | 2100 nM | –
7 | Cc1cc(OCCCc2c3n(c4c(-c5c(C)nn(C)c5C)c(Cl)ccc24)[C@H](C)CN(c2cccc4c2cc(-c2nn[nH]n2)n4C)C3=O)cc(C)c1Cl [Example 307, (4R)-7-chloro-10-[3-(4-chloro-3,5-dimethyl-phenoxy)propyl]-4-methyl-2-[1-methyl-2-(2H-tetrazol-5-yl)indol-4-yl]-6-(1,3,5-trimethylpyrazol-4-yl)-3,4-dihydropyrazino[1,2-a]indol-1-one] | 1.3 nM | 3500 nM | –
8 | Cc1cc(OCCCc2c3n(c4c(-c5c(C)nn(C)c5C)c(Cl)ccc24)[C@H](C)CN(c2cc(C(=O)O)cc4c2OCCO4)C3=O)cc(C)c1Cl [Example 26, (R)-8-(7-chloro-10-(3-(4-chloro-3,5-dimethylphenoxy)propyl)-4-methyl-1-oxo-6-(1,3,5-trimethyl-1H-pyrazol-4-yl)-3,4-dihydropyrazino[1,2-a]indol-2(1H)-yl)-2,3-dihydrobenzo[b][1,4]dioxine-6-carboxylic acid] | 1.3 nM | 830 nM | –
9 | CNC(=O)c1ccc2c(c1)c(N1C[C@@H](C)n3c(c(CCCOc4cc(C)c(Cl)c(C)c4)c4ccc(Cl)c(-c5c(C)nn(C)c5C)c43)C1=O)cn2C [Example 286, (R)-3-(7-chloro-10-(3-(4-chloro-3,5-dimethylphenoxy)propyl)-4-methyl-1-oxo-6-(1,3,5-trimethyl-1H-pyrazol-4-yl)-3,4-dihydropyrazino[1,2-a]indol-2(1H)-yl)-N,1-dimethyl-1H-indole-5-carboxamide] | 3.3 nM | 510 nM | –
10 | Cc1cc(OCCCc2c3n(c4c(-c5c(C)nn(C)c5C)c(Cl)ccc24)[C@H](C)CN(c2ccc(C(=O)O)c4ccccc24)C3=O)cc(C)c1Cl [Example 189, (R)-4-(7-Chloro-10-(3-(4-chloro-3,5-dimethylphenoxy)propyl)-4-methyl-1-oxo-6-(1,3,5-trimethyl-1H-pyrazol-4-yl)-3,4-dihydropyrazino[1,2-a]indol-2(1H)-yl)-1-naphthoic acid] | 1.2 nM | 920 nM | –
11 | Cc1cc(OCCCc2c3n(c4c(-c5c(C)ncnc5C)c(Cl)ccc24)[C@H](C)CN(c2cccc4cc(C(=O)O)ccc24)C3=O)cc(C)c1Cl [Example 218, 5-[(4R)-7-chloro-10-[3-(4-chloro-3,5-dimethyl-phenoxy)propyl]-6-(4,6-dimethylpyrimidin-5-yl)-4-methyl-1-oxo-3,4-dihydropyrazino[1,2-a]indol-2-yl]naphthalene-2-carboxylic acid] | < 1 nM | < 200 nM | –
12 | CCn1cc(C(=O)O)c2cccc(N3C[C@@H](C)n4c(c(CCCOc5cc(C)c(Cl)c(C)c5)c5ccc(Cl)c(-c6c(C)nn(C)c6C)c54)C3=O)c21 [Example 103, (R)-7-(7-Chloro-10-(3-(4-chloro-3,5-dimethylphenoxy)propyl)-4-methyl-1-oxo-6-(1,3,5-trimethyl-1H-pyrazol-4-yl)-3,4-dihydropyrazino[1,2-a]indol-2(1H)-yl)-1-ethyl-1H-indole-3-carboxylic acid] | < 1 nM | 480 nM | –
13 | Cc1cc(OCCCc2c3n(c4c(-c5c(C)nn(C)c5C)c(Cl)ccc24)[C@H](C)CN(c2ccc4nc(C(=O)O)ccc4c2)C3=O)cc(C)c1Cl [Example 102, (R)-6-(7-Chloro-10-(3-(4-chloro-3,5-dimethylphenoxy)propyl)-4-methyl-1-oxo-6-(1,3,5-trimethyl-1H-pyrazol-4-yl)-3,4-dihydropyrazino[1,2-a]indol-2(1H)-yl)quinoline-2-carboxylic acid] | 1.5 nM | 4900 nM | –
14 | Cc1nnc(-c2ccc3c(c2)c(N2C[C@@H](C)n4c(c(CCCOc5cc(C)c(Cl)c(C)c5)c5ccc(Cl)c(-c6c(C)nn(C)c6C)c54)C2=O)cn3C)o1 [Example 337, (R)-7-Chloro-10-(3-(4-chloro-3,5-dimethylphenoxy)propyl)-4-methyl-2-(1-methyl-5-(5-methyl-1,3,4-oxadiazol-2-yl)-1H-indol-3-yl)-6-(1,3,5-trimethyl-1H-pyrazol-4-yl)-3,4-dihydropyrazino[1,2-a]indol-1(2H)-one] | 2.6 nM | 540 nM | –
15 | Cc1cc(OCCCc2c3n(c4c(-c5c(C)nc(CN6CCOCC6)nc5C)c(Cl)ccc24)[C@H](C)CN(c2cn(C)c4ccc(C(=O)O)cc24)C3=O)cc(C)c1Cl [Example 398, (R)-3-(7-Chloro-10-(3-(4-chloro-3,5-dimethylphenoxy)propyl)-6-(4,6-dimethyl-2-(morpholinomethyl)pyrimidin-5-yl)-4-methyl-1-oxo-3,4-dihydropyrazino[1,2-a]indol-2(1H)-yl)-1-methyl-1H-indole-5-carboxylic acid] | < 1 nM | 200 nM | –
16 | Cc1cc(OCCCc2c3n(c4c(-c5c(C)nn(C)c5C)c(Cl)ccc24)[C@H](C)CN(c2cccc4c2c(C(=O)O)cn4C)C3=O)cc(C)c1Cl [Example 182, 4-[(4R)-7-chloro-10-[3-(4-chloro-3,5-dimethyl-phenoxy)propyl]-4-methyl-1-oxo-6-(1,3,5-trimethylpyrazol-4-yl)-3,4-dihydropyrazino[1,2-a]indol-2-yl]-1-methyl-indole-3-carboxylic acid] | < 1 nM | 1500 nM | –
17 | COCCOc1ccc(N2C[C@@H](C)n3c(c(CCCOc4cc(C)c(Cl)c(C)c4)c4ccc(Cl)c(-c5c(C)nn(C)c5C)c43)C2=O)c2cc(C(=O)O)n(C)c12 [Example 323, (M, R)-4-(7-Chloro-10-(3-(4-chloro-3,5-dimethylphenoxy)propyl)-4-methyl-1-oxo-6-(1,3,5-trimethyl-1H-pyrazol-4-yl)-3,4-dihydropyrazino[1,2-a]indol-2(1H)-yl)-7-(2-methoxyethoxy)-1-methyl-1H-indole-2-carboxylic acid] | < 1 nM | – | 1500 nM
18 | Cc1cc(OCCCc2c3n(c4c(-c5c(C)nn(C)c5C)c(Cl)ccc24)[C@H](C)CN(c2cc(C(C)C)cc4cc(C(N)=O)n(C)c24)C3=O)cc(C)c1Cl [Example 422, (R)-7-(7-Chloro-10-(3-(4-chloro-3,5-dimethylphenoxy)propyl)-4-methyl-1-oxo-6-(1,3,5-trimethyl-1H-pyrazol-4-yl)-3,4-dihydropyrazino[1,2-a]indol-2(1H)-yl)-5-isopropyl-1-methyl-1H-indole-2-carboxamide] | < 1 nM | 830 nM | –
19 | Cc1cc(OCCCc2c3n(c4c(-c5c(C)nn(C)c5C)c(Cl)ccc24)[C@H](C)[C@@H](C)N(c2ccc(C(=O)O)cc2)C3=O)cc(C)c1Cl [Example 142, 4-((3R,4R)-7-chloro-10-(3-(4-chloro-3,5-dimethylphenoxy)propyl)-3,4-dimethyl-1-oxo-6-(1,3,5-trimethyl-1H-pyrazol-4-yl)-3,4-dihydropyrazino[1,2-a]indol-2(1H)-yl)benzoic acid] | 3.8 nM | 7400 nM | –
